# Measurements from patent US10758534B2 (Vertex Pharmaceuticals Incorporated, priority 2014, dated 2020).
# Biological target: T1, F508del (Homo sapiens, UniProt P13569, DEL508-508)
# T1 construct: expressed in transfected cells
# Test: Protocol 1: membrane potential optical assay (FLIPR III, voltage sensing dye), identification of potentiator compounds
# Type: cell-based
# Conditions: Table 3, compounds of Table 1
# Outline: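 NIH3T3 F508del cells, 27° C × 24 hrs; compound/DMSO pretreat → redistribution dye load → single forskolin addition with Cl⁻ gradient (gluconate-substituted bath, HEPES pH 7.4). FLIPR III membrane-potential fluorescence read.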
# T1 sequence (P13569 with tags, fused parts or gaps DEL508-508): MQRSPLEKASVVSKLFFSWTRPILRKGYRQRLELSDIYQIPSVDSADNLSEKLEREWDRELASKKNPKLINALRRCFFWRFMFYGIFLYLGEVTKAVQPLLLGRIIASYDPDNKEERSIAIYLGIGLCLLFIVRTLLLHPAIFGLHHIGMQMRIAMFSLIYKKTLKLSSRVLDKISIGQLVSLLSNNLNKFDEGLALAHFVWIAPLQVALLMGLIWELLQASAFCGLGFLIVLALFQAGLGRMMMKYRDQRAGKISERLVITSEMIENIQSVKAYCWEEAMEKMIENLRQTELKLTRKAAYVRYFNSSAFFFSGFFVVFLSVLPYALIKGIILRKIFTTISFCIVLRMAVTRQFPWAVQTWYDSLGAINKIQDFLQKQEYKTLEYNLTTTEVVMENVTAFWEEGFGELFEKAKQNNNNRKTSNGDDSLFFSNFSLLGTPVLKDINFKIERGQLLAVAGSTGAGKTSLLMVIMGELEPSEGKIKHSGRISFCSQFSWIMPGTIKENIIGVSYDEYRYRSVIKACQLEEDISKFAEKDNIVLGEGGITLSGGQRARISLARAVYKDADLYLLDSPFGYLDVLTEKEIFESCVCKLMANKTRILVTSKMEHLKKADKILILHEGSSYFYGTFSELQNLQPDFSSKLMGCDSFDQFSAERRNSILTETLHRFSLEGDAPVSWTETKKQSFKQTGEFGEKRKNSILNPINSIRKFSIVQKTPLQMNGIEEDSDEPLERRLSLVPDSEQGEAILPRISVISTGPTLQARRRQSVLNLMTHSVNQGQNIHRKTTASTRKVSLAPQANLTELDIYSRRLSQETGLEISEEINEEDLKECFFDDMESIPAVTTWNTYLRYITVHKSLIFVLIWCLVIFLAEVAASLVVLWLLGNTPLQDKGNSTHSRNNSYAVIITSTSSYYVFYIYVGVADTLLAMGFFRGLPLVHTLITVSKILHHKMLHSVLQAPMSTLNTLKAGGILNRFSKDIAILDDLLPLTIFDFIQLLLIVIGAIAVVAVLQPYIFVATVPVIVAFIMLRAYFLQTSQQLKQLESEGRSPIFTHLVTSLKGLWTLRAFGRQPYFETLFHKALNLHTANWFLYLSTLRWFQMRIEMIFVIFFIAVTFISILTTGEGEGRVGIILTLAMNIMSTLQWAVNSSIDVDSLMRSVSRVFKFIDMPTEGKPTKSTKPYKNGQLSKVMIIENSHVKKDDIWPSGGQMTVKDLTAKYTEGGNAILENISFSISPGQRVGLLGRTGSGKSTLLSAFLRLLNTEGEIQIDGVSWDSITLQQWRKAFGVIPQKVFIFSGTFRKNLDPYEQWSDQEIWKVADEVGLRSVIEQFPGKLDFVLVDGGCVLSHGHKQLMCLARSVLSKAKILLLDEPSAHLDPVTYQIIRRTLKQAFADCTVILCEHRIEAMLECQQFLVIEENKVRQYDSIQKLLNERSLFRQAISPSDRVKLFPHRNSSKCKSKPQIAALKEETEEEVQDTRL
row,SMILES,EC30
1,"CC1CN(c2ncccc2C(=O)NS(=O)(=O)c2cccc(N(C)CCc3ccccc3)n2)C(C)(C)C1 (stereo not shown) [Compound 1978, N—[[6-[methyl(phenethyl)amino]-2-pyridyl]sulfonyl]-2-(2,2,4-trimethylpyrrolidin-1-yl)pyridine-3-carboxamide]",+++ (“+++” means <3 uM)
2,"CCCCCc1ccc(C(=O)NS(=O)(=O)c2cccc(N)n2)c(Oc2c(C)cc(C)cc2C)n1 [Compound 862, N-[(6-amino-2-pyridyl)sulfonyl]-6-pentyl-2-(2,4,6-trimethylphenoxy)pyridine-3-carboxamide]",+++ (“+++” means <3 uM)
3,"C=C(C)c1ccc(C(=O)NS(=O)(=O)c2cccc(N)n2)c(N2C[C@@H](C)CC2(C)C)n1 [Compound 1423, N-[(6-amino-2-pyridyl)sulfonyl]-6-isopropenyl-2-[(4S)-2,2,4-trimethylpyrrolidin-1-yl]pyridine-3-carboxamide]",+++ (“+++” means <3 uM)
4,"COc1ccc(CN(C)c2cccc(S(=O)(=O)NC(=O)c3cccnc3N3CC(C)CC3(C)C)n2)cc1 (stereo not shown) [Compound 1717, N—[[6-[(4-methoxyphenyl)methyl-methyl-amino]-2-pyridyl]sulfonyl]-2-(2,2,4-trimethylpyrrolidin-1-yl)pyridine-3-carboxamide]",+++ (“+++” means <3 uM)
5,"CCC1(C)CC(C)CN1c1nc(-c2cc(F)cc(OCC(C)C)c2)ccc1C(=O)NS(=O)(=O)c1cccc(N)n1 (single isomer, unassigned) [Compound 1729, N-[(6-amino-2-pyridyl)sulfonyl]-2-(2-ethyl-2,4-dimethyl-pyrrolidin-1-yl)-6-(3-fluoro-5-isobutoxy-phenyl)pyridine-3-carboxamide]",+++ (“+++” means <3 uM)
6,"Cc1cc(C)c(Oc2nc(C3=CCCC3)ccc2C(=O)NS(=O)(=O)c2cccc(N)n2)c(C)c1 [Compound 1330, N-[(6-amino-2-pyridyl)sulfonyl]-6-(cyclopenten-1-yl)-2-(2,4,6-trimethylphenoxy)pyridine-3-carboxamide]",+++ (“+++” means <3 uM)
7,"CC1CN(c2nc(-c3ccnc(C(C)C)c3)ccc2C(=O)NS(=O)(=O)c2cccc(N)n2)C(C)(C)C1 (stereo not shown) [Compound 1262, N-[(6-amino-2-pyridyl)sulfonyl]-6-(2-isopropyl-4-pyridyl)-2-(2,2,4-trimethylpyrrolidin-1-yl)pyridine-3-carboxamide]",++ (“++” means between 3 uM and 10 uM)
8,"CCOc1cccc2c1CN(Cc1c(C)cc(C)cc1C)C2(C)C(=O)NS(=O)(=O)c1ccc2cc[nH]c2c1 (stereo not shown) [Compound 1393, 4-ethoxy-N-(1H-indol-6-ylsulfonyl)-1-methyl-2-[(2,4,6-trimethylphenyl)methyl]isoindoline-1-carboxamide]",+++ (“+++” means <3 uM)
9,"CCC1CCCN1c1nc(-c2cc(F)cc(OCC(C)C)c2)ccc1C(=O)NS(=O)(=O)c1cccc(N)n1 (stereo not shown) [Compound 1218, N-[(6-amino-2-pyridyl)sulfonyl]-2-(2-ethylpyrrolidin-1-yl)-6-(3-fluoro-5-isobutoxy-phenyl)pyridine-3-carboxamide]",+++ (“+++” means <3 uM)
10,"CC1CN(c2nc(C(C)(C)C)c(C3=CC(=O)CC(C)(C)C3)cc2C(=O)NS(=O)(=O)c2cccc(N)n2)C(C)(C)C1 (stereo not shown) [Compound 1405, N-[(6-amino-2-pyridyl)sulfonyl]-6-tert-butyl-5-(5,5-dimethyl-3-oxo-cyclohexen-1-yl)-2-(2,2,4-trimethylpyrrolidin-1-yl)pyridine-3-carboxamide]",+++ (“+++” means <3 uM)
11,"CCOc1cccc2c1CN(Cc1c(C)cc(C)cc1C)[C@]2(C)C(=O)NS(=O)(=O)c1ccc[nH]c1=O [Compound 1541, (1S)-4-ethoxy-1-methyl-N-[(2-oxo-1H-pyridin-3-yl)sulfonyl]-2-[(2,4,6-trimethylphenyl)methyl]isoindoline-1-carboxamide]",+++ (“+++” means <3 uM)
12,"CC1CN(c2ncccc2C(=O)NS(=O)(=O)c2cccc(OCc3ccsc3)n2)C(C)(C)C1 (stereo not shown) [Compound 1992, N—[[6-(3-thienylmethoxy)-2-pyridyl]sulfonyl]-2-(2,2,4-trimethylpyrrolidin-1-yl)pyridine-3-carboxamide]",+++ (“+++” means <3 uM)
13,"CCOc1ccc(-c2ccc(C(=O)NS(=O)(=O)c3cccc(N)n3)c(Oc3c(C)cc(C)cc3C)n2)cc1 [Compound 1337, N-[(6-amino-2-pyridyl)sulfonyl]-6-(4-ethoxyphenyl)-2-(2,4,6-trimethylphenoxy)pyridine-3-carboxamide]",+++ (“+++” means <3 uM)
14,"CC1CN(c2ncccc2C(=O)NS(=O)(=O)c2cccc(N3CCc4c([nH]c5ccccc45)C3)n2)C(C)(C)C1 (stereo not shown) [Compound 1833, N—[[6-(1,3,4,9-tetrahydropyrido[3,4-b]indol-2-yl)-2-pyridyl]sulfonyl]-2-(2,2,4-trimethylpyrrolidin-1-yl)pyridine-3-carboxamide]",+++ (“+++” means <3 uM)
15,"CC(C)COc1cc(F)cc(-c2ccc(C(=O)NS(=O)(=O)c3cccc(N)n3)c(N3CCC(C)C3(C)C)n2)c1 (stereo not shown) [Compound 1121, N-[(6-amino-2-pyridyl)sulfonyl]-6-(3-fluoro-5-isobutoxy-phenyl)-2-(2,2,3-trimethylpyrrolidin-1-yl)pyridine-3-carboxamide]",+++ (“+++” means <3 uM)
16,"CC1CN(c2ncccc2C(=O)NS(=O)(=O)c2cccc(Nc3ccc4[nH]ccc4c3)n2)C(C)(C)C1 (stereo not shown) [Compound 1823, N—[[6-(1H-indol-5-ylamino)-2-pyridyl]sulfonyl]-2-(2,2,4-trimethylpyrrolidin-1-yl)pyridine-3-carboxamide]",+++ (“+++” means <3 uM)
17,"CC1CN(c2nc(C(C)(C)C)c(C3=CCCCC3)cc2C(=O)NS(=O)(=O)c2cccc(N)n2)C(C)(C)C1 (stereo not shown) [Compound 1601, N-[(6-amino-2-pyridyl)sulfonyl]-6-tert-butyl-5-(cyclohexen-1-yl)-2-(2,2,4-trimethylpyrrolidin-1-yl)pyridine-3-carboxamide]",+++ (“+++” means <3 uM)
18,"CC1CN(c2nc(-c3ccc(OC(C)C)cc3)ccc2C(=O)NS(=O)(=O)c2cccc(N)n2)C(C)(C)C1 (stereo not shown) [Compound 1020, N-[(6-amino-2-pyridyl)sulfonyl]-6-(4-isopropoxyphenyl)-2-(2,2,4-trimethylpyrrolidin-1-yl)pyridine-3-carboxamide]",+++ (“+++” means <3 uM)
19,"CCOc1cccc2c1CN(Cc1c(C)cccc1C)C2(C)C(=O)NS(=O)(=O)c1cccc(N)n1 (stereo not shown) [Compound 1498, N-[(6-amino-2-pyridyl)sulfonyl]-2-[(2,6-dimethylphenyl)methyl]-4-ethoxy-1-methyl-isoindoline-1-carboxamide]",+++ (“+++” means <3 uM)
20,"CC1CN(c2ncccc2C(=O)NS(=O)(=O)c2cccc(N3CCCC(c4ccccc4)C3)n2)C(C)(C)C1 (stereo not shown) [Compound 1755, N—[[6-(3-phenyl-1-piperidyl)-2-pyridyl]sulfonyl]-2-(2,2,4-trimethylpyrrolidin-1-yl)pyridine-3-carboxamide]",++ (“++” means between 3 uM and 10 uM)
21,"COc1ccc(OC)c(-c2ccc(C(=O)NS(=O)(=O)c3cccc(N)n3)c(Oc3c(C)cc(C)cc3C)n2)c1 [Compound 1225, N-[(6-amino-2-pyridyl)sulfonyl]-6-(2,5-dimethoxyphenyl)-2-(2,4,6-trimethylphenoxy)pyridine-3-carboxamide]",+++ (“+++” means <3 uM)
22,"CC(C)COc1cc(F)cc(-c2ccc(C(=O)NS(=O)(=O)c3cccc(N)n3)c(N3CCC(=O)C3(C)C)n2)c1 [Compound 1189, N-[(6-amino-2-pyridyl)sulfonyl]-2-(2,2-dimethyl-3-oxo-pyrrolidin-1-yl)-6-(3-fluoro-5-isobutoxy-phenyl)pyridine-3-carboxamide]",+++ (“+++” means <3 uM)
